Experiments:
[1] = test system: upper limb tremor in participants with ET; assay: Phase 2 trial in essential tremor (Part A, Part B OLT, Part B RWD): TETRAS performance subscale, ADL and mADL scores; format: in vivo, human; parameters: key to TETRAS ADL Randomization Baseline Mean: TETRAS ADL: 12 items each rated 0 to 4
Source text: In some embodiments, the compound of Formula (I) or a pharmaceutically acceptable salt thereof (e.g., the HCl salt), when administered in combination with at least one of propranolol, primidone, topiramate, or a pharmaceutically acceptable salt thereof can reduce tremor severity by at least about 20% when measured by The Essential Tremor Rating Assessment Scale (TETRAS). The term “TETRAS” as used herein refers to a scale developed to quantify severity of ET and its impact on daily activities. It has an activities of daily living (ADL) section and a performance section. The ADL section has 12 items rated between 0 to 4, and the performance section has 9 items rated between 0 to 4. See, e.g., Elble, R. R., The Essential Tremor Rating Assessment Scale, J. Neurology Neuromed. 2016, 1(4):34-38. This multi-center clinical trial assessed the efficacy, safety, tolerability, and PK of the HCl salt compound of Formula (I) in participants aged 18 years of age or older who have had signs and symptoms consistent with ET for at least 3 years, with an onset before age 65. The clinical trial was conducted in 2 parts (Part A and Part B). Both parts consisted of 3 periods: Screening/Baseline, Intervention, and Safety Follow-up Periods. Part A of the clinical trial was open-label and assessed the safety and tolerability of the study drug, as well as the overall magnitude and pattern of change in ET severity. Daily dose levels of the HCl salt compound of Formula (I) were titrated from 20 mg (Day 1 to Day 7) to 40 mg (Days 8 to 14). Part B of the clinical trial consisted of both an open-label titration phase and a randomized, double-blind, placebo-controlled withdrawal phase. Part B assessed the safety and tolerability of the study drug, as well as the overall magnitude and pattern of change in ET severity and the duration of that effect. During the open-label titration phase, the daily dose levels of the HCl salt compound of Formula (I) were titrated from 20 mg (Days 1 to 3) to 40 mg (Days 4 to 7) to 60 mg (Days 8 to 14) to 80 mg (Days 15 to 21) to 100 mg (Days 22 to 28) to 120 mg (Days 29 to 42) or the highest tolerated dose. In the randomized, double-blind, placebo-controlled withdrawal phase, participants were either maintained on their final open-label dose or switched to placebo for an additional 14 days (Days 43 to 56). Part A. On Day 1, participants received a 20 mg dose of study drug, administered in the morning. Participants remained in a clinical setting under medical observation for approximately 6 hours. TETRAS Performance assessments were performed before dosing and 6 hours post-dose. After the first dose, participants continued QAM dosing at home after breakfast through Day 7. Participants returned to the clinic on Day 7 for efficacy testing at the 20 mg dose level. On Day 8, the dose increased to 40 mg QAM after breakfast through Day 14. Participants returned to the clinic on Day 14 for efficacy testing at the 40 mg dose level. Participants who agreed to optional additional PK sampling remained overnight in the clinic on Day 1, Day 7, and Day 14. Key safety measures included clinical laboratory evaluations, 12-lead ECG, C-SSRS, and vital signs. Key efficacy assessments included the TETRAS Performance subscale, TETRAS Upper Limb using accelerometry, CGI, and PGI-C. Blood samples were obtained for the determination of study drug plasma concentrations using a validated bioanalytical method and may also be used for method development and/or metabolite characterization. On Day 1, participants received a 20 mg dose of study drug on an empty stomach (at least 1 hour before breakfast). Participants remained in a clinical setting under medical observation for approximately 6 hours. TETRAS Performance assessments were performed before dosing and 6 hours (±2) post-dose. For dosing on Day 2 through Day 41, participants were instructed to dose QAM at least 1 hour before breakfast at home. Participants continued taking study drug 20 mg QAM at home through Day 3. […]

[2] = test system: harmaline-induced decrease in travelling distance in male SD rats; assay: Open field test with harmaline in SD rats; format: in vivo, rat; conditions: harmaline 30 mg/kg, dose of 3 and 10 mg/kg
Protocol: (§1) Each of six groups of male SD rats were subjected to a tremor assessment, followed by three ADL-like measures including open field test, rotarod test, and wire grip test after receiving doses of either vehicle, Formula (I), or propranolol, followed by either saline or harmaline, as outlined below in Table 22 below.
Fifteen minutes after the tremor assessment, the rats were subjected to an open field test. FIG. 8 is a bar graph showing the traveling distance in 0-5 minutes (mm) measured in rats that were administered 30 mg/kg harmaline and also administered 10 mg/kg propranolol or 1 mg/kg, 3 mg/kg or 10 mg/kg study drug.

[3] = test system: harmaline-induced motor impairment in male SD rats; assay: Wire grip test with harmaline in SD rats; format: in vivo, rat; conditions: harmaline 30 mg/kg, dose of 1, 3 and 10 mg/kg
Source text: as §1
Fifteen minutes after the rotarod test, rats were subjected to a wire grip test using an 80 cm long and 7 mm in diameter wire placed at a height of 50 cm.

[4] = test system: harmaline-induced hypolocomotion in male SD rats; assay: Co-dosing with propranolol in rat harmaline-induced hypolocomotion (open field, 30 min); format: in vivo; conditions: harmaline 30 mg/kg, 3 mg/kg study drug alone (without propranolol), identical study
Protocol: Two harmaline model studies using sLMA as one ADL-like end point were carried out. In each of two sLMA studies, male SD rats were grouped into five groups according to the following table. In the first study, Groups 3, 4, and 5 received 3 mg/kg of propranolol and the compound of Formula (I) (the study drug) at the doses of 1 mg/kg or 3 mg/kg. In the second study, Groups 3, 4, and 5, received 10 mg/kg of propranolol and the study drug at the doses of 1 mg/kg or 3 mg/kg.
Rats were then subjected to an open field test for 30 minutes. Total distance travelled was measured.

[5] = Part B OLT, Day 7, N = 10, change from pre-dose baseline
[6] = Part B OLT, Day 21, N = 12, change from pre-dose baseline
[7] = Part B OLT, Day 42, 6 hours post-dose, N = 11, change from pre-dose baseline
[8] = Part B RWD, Day 56, study drug group N = 6, change from randomization baseline, last line of the cell group
[9] = Part B RWD, study drug group N = 6, Day 42 post-dose value
[10] = listed as compound of Formula (I)

CC(C)(C)NC(=O)CN1CCC(CNC(=O)c2cc(F)cc(Cl)c2)CC1.Cl [Study drug]
response (e.g., reduced tremor symptoms) of ET patients ([1]; ET patients who were taking propranolol hydrochloride, phase 2 clinical trial): responded favorably
all TETRAS performance subscale-derived scores after washout ([1]; Part A, Day 21, after a 1-week washout period): returned to near pre-dose baseline levels
mADL (TETRAS modified total score) CTA LS Mean % [1, 5]: −18.49%
mADL (TETRAS modified total score) Score CFB LS Mean [1, 5]: −2.862
TETRAS CULS Score CFB LS Mean [1, 6]: 1.320
mADL (TETRAS modified total score) CTA LS Mean % [1, 6]: −14.31%
mADL (TETRAS modified total score) Score CFB LS Mean [1, 6]: −2.812
mADL (TETRAS modified total score) CTA LS Mean % [1, 7]: −42.04%
mADL (TETRAS modified total score) Score CFB LS Mean [1, 7]: −6.669
TETRAS ADL LS Mean Difference: Study drug - Placebo (95% CI) ([1]; Part B RWD, Day 56): −9.578 (−18.9020, −0.2546)
TETRAS CULS LS Mean Difference: Study drug - Placebo (95% CI) ([1]; Part B RWD, Day 56): −1.896 (−8.7365, 4.9451)
TETRAS PSTS LS Mean Difference: Study drug - Placebo (95% CI) ([1]; Part B RWD, Day 56): −3.025 (−11.2090, 5.1595)
TETRAS ULS LS Mean Difference: Study drug - Placebo (95% CI) ([1]; Part B RWD, Day 56): −0.253 (−4.9188, 4.4129)
mADL LS Mean Difference: Study drug - Placebo (95% CI) ([1]; Part B RWD, Day 56): −8.439 (−15.3856, −1.4916)
mADL (TETRAS modified total score) LS Mean CFB ([1]; Part B RWD, Day 56, study drug group N = 6, change from randomization baseline): 1.350
TETRAS ADL Mean CFB [1, 8]: 5.84
mADL (TETRAS modified total score) Mean CFB [1, 8]: 8.45
mADL LS Mean Difference: Study drug - Placebo (95% CI) ([1]; Part B RWD, Day 56, listed as study drug): −8.439
TETRAS ADL LS Mean Difference: Study drug - Placebo (95% CI) ([1]; Part B RWD, Day 70): −5.988 (−16.8132, 4.8377)
TETRAS CULS LS Mean Difference: Study drug - Placebo (95% CI) ([1]; Part B RWD, Day 70): −0.964 (−6.5938, 4.6660)
TETRAS PSTS LS Mean Difference: Study drug - Placebo (95% CI) ([1]; Part B RWD, Day 70): −1.277 (−7.5286, 4.9741)
TETRAS ULS LS Mean Difference: Study drug - Placebo (95% CI) ([1]; Part B RWD, Day 70): −0.316 (−3.3765, 2.7441)
mADL LS Mean Difference: Study drug - Placebo (95% CI) ([1]; Part B RWD, Day 70): −3.236 (−12.3264, 5.8538)
mADL (TETRAS modified total score) LS Mean CFB ([1]; Part B RWD, Day 70 (follow-up), study drug group N = 6, change from randomization baseline): 4.353
TETRAS ADL Mean CFB ([1]; Part B RWD, Day 70 (follow-up), study drug group N = 6, change from randomization baseline, last line of the cell group): 18.73
TETRAS ADL Randomization Baseline Mean [1, 9]: 22.17
TETRAS CULS Randomization Baseline Mean [1, 9]: 19.33
TETRAS PS Item 6: Archimedes Spiral (Left) Randomization Baseline Mean (SD) [1, 9]: 1.75 (0.524)
TETRAS PS Item 6: Archimedes Spiral (Right) Randomization Baseline Mean (SD) [1, 9]: 1.75 (0.247)
TETRAS PS Item 7: Handwriting Randomization Baseline Mean (SD) [1, 9]: 1.75 (1.405)
TETRAS PSTS Randomization Baseline Mean [1, 9]: 22.83
TETRAS ULS Randomization Baseline Mean [1, 9]: 10.25
mADL (TETRAS modified total score) Randomization Baseline Mean [1, 9]: 12.17
all TETRAS performance subscale-derived, TETRAS ADL-derived, and quality of life measures after washout ([1]; Part B, Day 70, after a 1-week washout period): returned to near pre-dose baseline levels
travelling distance in 0-5 minutes in open field vs vehicle and harmaline only ([2]; listed as Formula (I)): significantly attenuated
travelling distance in 0-5 minutes in open field vs vehicle and harmaline only [2, 10]: significantly attenuated decrease
latency to fall in wire grip test vs vehicle and harmaline only ([3]; listed as Formula (I)): significantly attenuated
latency to fall in wire grip test vs vehicle and harmaline only [3, 10]: significantly attenuated decrease in fall off latency
harmaline-induced hypolocomotion (traveling distance in 0-30 minutes) vs harmaline and vehicle [4]: not significantly different

— patent publication US20250170114A1, “METHODS OF TREATMENT USING T-TYPE CALCIUM CHANNEL MODULATORS” (Praxis Precision Medicines, Inc., priority 2022, published 2025)
